Experiment [1] deals with T1, human metabotropic glutamate receptor mGluR5 (Homo sapiens, UniProt P41594).
T1 construct: expressed in transfected cells; host or cells: CHO-K1 (h5CHO), IPTG-inducible
Put plainly: Cytosolic calcium studies with stably transfected cells (h5CHO), functional assay of mGluR5 receptors. Type of experiment: cell-based. Particulars: for h left shift / IC50: h5CHO cells; for EC50: positive modulators, h5CHO cells preincubated with modulator, stimulated by an EC20 concentration of L-glutamate, read-out: hEC50; for IC50: Table A2, negative modulation, compounds added 5 minutes before L-quisqualic acid (~80% of the maximal signal), read-out: hIC50. The essentials: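 IPTG-induced h5CHO (CHO-K1 expressing human mGluR5) loaded with calcium dye; compounds (0.5% DMSO) added 5 min before agonist. NAM IC50 against L-quisqualate at ~EC80; PAM EC50 with EC20 L-glutamate. FLIPR fluorescence, max-minus-min, % of maximal response, logistic fit.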

Experiment [2] concerns the target T2, mGluR5 receptors (Rattus norvegicus, UniProt P31424).
T2 construct: Primary astrocyte cultures are prepared from cortices of newborn rats; endogenous in cells; host or cells: primary cortical astrocytes from Sprague-Dawley rat pups (2-4 d old)
Put plainly: Cytosolic calcium studies with astrocytes (FLIPR), functional assay of mGluR5 receptors. Particulars: for IC50: Table A2, pre-incubated 10 minutes before L-quisqualate (100 nM), read-out: rIC50. Type of experiment: cell-based. Put shortly:
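Rat cortical primary astrocytes at 14-15 DIV, loaded with Ca-sensitive dye for 2 h at RT, pH 7.3 buffer; FLIPR fluorescence after L-quisqualate (100 nM), antagonists pre-incubated 10 min. PAMs: quisqualate curves ± 10 µM modulator, or modulator curves at fixed 10-30 nM quisqualate. Max-min responses as % control, logistic fit.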

The mark [3] stands for this setting: Table A1, left shift of agonist EC50, dose response curves in the presence of 10 µM modulator or vehicle.
The mark [4] stands for this setting: Table A1, left shift of quisqualate EC50 in the presence and absence of 10 µM modulator.
Where [5] appears, read: Table A1, positive modulators, fixed concentration of quisqualate (normally 10-30 nM), read-out: rEC50.

Data on 18 compounds can be found in patent EP2650284A1, “Heterocyclic derivatives as metabotropic glutamate receptor modulators” (Merz Pharma GmbH & Co. KGaA, priority 2012, dated 2013).

Like-named read-outs stand apart in the source and are kept apart here.

T2 sequence (P31424 21-1203): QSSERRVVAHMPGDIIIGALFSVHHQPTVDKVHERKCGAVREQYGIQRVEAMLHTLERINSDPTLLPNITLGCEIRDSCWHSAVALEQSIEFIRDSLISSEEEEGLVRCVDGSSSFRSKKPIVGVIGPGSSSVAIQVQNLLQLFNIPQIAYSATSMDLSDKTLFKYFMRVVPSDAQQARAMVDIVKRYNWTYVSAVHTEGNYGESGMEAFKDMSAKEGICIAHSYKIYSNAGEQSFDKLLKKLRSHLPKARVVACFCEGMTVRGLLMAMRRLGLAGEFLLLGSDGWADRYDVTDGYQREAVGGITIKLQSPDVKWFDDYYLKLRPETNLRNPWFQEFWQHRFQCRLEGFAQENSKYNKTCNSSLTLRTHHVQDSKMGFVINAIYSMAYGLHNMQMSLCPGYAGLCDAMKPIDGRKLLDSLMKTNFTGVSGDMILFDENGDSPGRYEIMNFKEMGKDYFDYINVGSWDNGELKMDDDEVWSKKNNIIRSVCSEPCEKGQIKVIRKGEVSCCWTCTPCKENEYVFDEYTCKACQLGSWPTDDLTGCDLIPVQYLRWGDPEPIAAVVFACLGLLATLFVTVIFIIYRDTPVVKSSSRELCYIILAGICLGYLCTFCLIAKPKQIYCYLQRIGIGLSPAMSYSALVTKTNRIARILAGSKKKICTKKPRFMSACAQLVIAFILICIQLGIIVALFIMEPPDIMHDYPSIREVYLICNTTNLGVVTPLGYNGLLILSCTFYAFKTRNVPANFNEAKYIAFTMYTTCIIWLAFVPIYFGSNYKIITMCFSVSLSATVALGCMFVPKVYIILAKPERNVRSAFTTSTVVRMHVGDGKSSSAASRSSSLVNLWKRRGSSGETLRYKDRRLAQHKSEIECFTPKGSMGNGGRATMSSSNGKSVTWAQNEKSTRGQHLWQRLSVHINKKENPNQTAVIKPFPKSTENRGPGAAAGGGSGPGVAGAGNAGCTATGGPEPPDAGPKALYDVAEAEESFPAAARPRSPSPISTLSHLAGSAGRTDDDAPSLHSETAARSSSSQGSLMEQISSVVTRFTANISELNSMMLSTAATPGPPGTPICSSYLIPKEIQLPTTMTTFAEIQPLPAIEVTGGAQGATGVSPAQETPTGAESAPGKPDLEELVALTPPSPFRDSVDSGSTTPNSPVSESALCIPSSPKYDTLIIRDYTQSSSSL
T1 sequence (P41594 21-1212): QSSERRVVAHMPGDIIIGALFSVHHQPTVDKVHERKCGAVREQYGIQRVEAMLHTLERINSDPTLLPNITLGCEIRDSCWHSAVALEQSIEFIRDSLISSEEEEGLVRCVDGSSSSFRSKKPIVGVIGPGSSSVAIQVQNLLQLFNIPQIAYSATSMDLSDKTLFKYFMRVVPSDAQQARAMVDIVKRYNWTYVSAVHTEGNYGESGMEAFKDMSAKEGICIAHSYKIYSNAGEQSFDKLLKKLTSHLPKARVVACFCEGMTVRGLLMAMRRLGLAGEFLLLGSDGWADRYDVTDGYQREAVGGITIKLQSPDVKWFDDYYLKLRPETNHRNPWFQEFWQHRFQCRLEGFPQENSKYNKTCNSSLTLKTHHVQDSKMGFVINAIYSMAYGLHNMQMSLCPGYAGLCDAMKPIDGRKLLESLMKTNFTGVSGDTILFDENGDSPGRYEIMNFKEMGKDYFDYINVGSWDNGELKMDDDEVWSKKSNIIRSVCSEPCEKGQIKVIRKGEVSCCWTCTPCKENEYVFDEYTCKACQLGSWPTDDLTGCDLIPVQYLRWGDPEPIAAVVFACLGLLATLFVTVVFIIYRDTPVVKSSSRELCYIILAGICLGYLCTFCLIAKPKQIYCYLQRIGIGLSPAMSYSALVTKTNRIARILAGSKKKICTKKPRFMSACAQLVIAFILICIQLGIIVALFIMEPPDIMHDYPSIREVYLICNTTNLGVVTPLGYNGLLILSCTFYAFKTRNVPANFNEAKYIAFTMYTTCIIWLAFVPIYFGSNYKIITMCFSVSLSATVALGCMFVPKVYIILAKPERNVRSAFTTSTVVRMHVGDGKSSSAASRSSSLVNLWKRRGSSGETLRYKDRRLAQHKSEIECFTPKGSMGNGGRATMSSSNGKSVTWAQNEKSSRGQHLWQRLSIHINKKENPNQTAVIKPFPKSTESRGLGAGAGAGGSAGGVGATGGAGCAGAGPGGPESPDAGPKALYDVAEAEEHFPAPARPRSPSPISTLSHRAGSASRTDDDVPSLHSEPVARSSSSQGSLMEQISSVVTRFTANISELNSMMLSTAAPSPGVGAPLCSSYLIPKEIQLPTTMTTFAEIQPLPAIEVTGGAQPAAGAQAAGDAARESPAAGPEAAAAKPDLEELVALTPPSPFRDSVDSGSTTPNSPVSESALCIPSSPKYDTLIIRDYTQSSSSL

As for `CC(C)COC(=O)N1CCc2ncc(C#Cc3ccccc3)cc2C1` [Example 41, Isobutyl 3-(phenylethynyl)-7,8-dihydro-1,6-naphthyridine-6(5H)-carboxylate], the h left shift in experiment [1] (setting [3]) is reported as 2.2-fold. Further, the figures for the EC50 in experiment [1] (Table A1) and in experiment [2] (setting [5]) were 0.146 µM and 0.00436 µM, respectively. Also, the r left shift in experiment [2] (setting [4]) was 1.2-fold.
Taken in the same sequence, the figures for `CC(C)(C)OC(=O)N1CCc2ncc(C#Cc3ccccc3)cc2C1` [Example 42, tert-Butyl 3-(phenylethynyl)-7,8-dihydro-1,6-naphthyridine-6(5H)-carboxylate] were 3.1-fold, 0.281 µM, 0.131 µM and 1.9-fold.
`O=C(Oc1ccccc1)N1CCc2ncc(C#Cc3ccccc3)cc2C1` [Example 43, Phenyl 3-(phenylethynyl)-7,8-dihydro-1,6-naphthyridine-6(5H)-carboxylate]: the h left shift in experiment [1] (setting [3]) is reported as 2.4-fold. In addition, the EC50 was found to be 0.381 µM in experiment [1] (Table A1) and 0.038 µM in experiment [2] (setting [5]).
On to `CN(C)C(=O)N1CCc2ncc(C#Cc3cccc(F)c3)cc2C1` [Example 45, 3-((3-Fluorophenyl)ethynyl)-N,N-dimethyl-7,8-dihydro-1,6-naphthyridine-6(5H)-carboxamide], for which the figures for the IC50 in experiment [1] and in experiment [2] were 0.114 µM and 0.0559 µM, respectively.
The matching figures for `CN(C)C(=O)N1CCc2ncc(C#Cc3cccc(C#N)c3)cc2C1` [Example 46, 3-((3-Cyanophenyl)ethynyl)-N,N-dimethyl-7,8-dihydro-1,6-naphthyridine-6(5H)-carboxamide]: 0.0508 µM and 0.0208 µM.
`O=C(N1CCc2ncc(C#Cc3ccccc3)cc2C1)N(CC(F)(F)F)CC(F)(F)F` [Example 49, 3-(Phenylethynyl)-N,N-bis(2,2,2-trifluoroethyl)-7,8-dihydro-1,6-naphthyridine-6(5H)-carboxamide]: the h left shift in experiment [1] (setting [3]) is listed as 1.7-fold. Besides, the r left shift in experiment [2] (setting [4]) is recorded as 2.3-fold. Besides, the EC50 in experiment [2] (setting [5]) was found to be 0.0118 µM.
With `O=C(N1CCCCC1)N1CCc2ncc(C#Cc3ccccc3)cc2C1` [Example 50, (3-(Phenylethynyl)-7,8-dihydro-1,6-naphthyridin-6(5H)-yl)(piperidin-1-yl)methanone], the h left shift in experiment [1] (setting [3]) was 2.1-fold. For the same compound, in experiment [1] (Table A1), the EC50 stood at 0.843 µM. The r left shift in experiment [2] (setting [4]) is 1.9-fold.
For `N#Cc1cccc(C#Cc2cnc3c(c2)CN(C(=O)N2CCCCC2)CC3)c1` [Example 51, 3-((6-(Piperidine-1-carbonyl)-5,6,7,8-tetrahydro-1,6-naphthyridin-3-yl)ethynyl)benzonitrile], the IC50 in experiment [1] stood at 0.74 µM; in experiment [2] it was 2.33 µM.
Regarding `CN(C)S(=O)(=O)N1CCc2ncc(C#Cc3ccccc3)cc2C1` [Example 52, N,N-Dimethyl-3-(phenylethynyl)-7,8-dihydro-1,6-naphthyridine-6(5H)-sulfonamide], the h left shift in experiment [1] (setting [3]) is on record as 2.0-fold. Besides, the EC50 came to 0.24 µM in experiment [1] (Table A1) and 0.0831 µM in experiment [2] (setting [5]). The r left shift in experiment [2] (setting [4]) is given as 1.8-fold.
As to `O=S(=O)(N1CCCC1)N1CCc2ncc(C#Cc3ccccc3)cc2C1` [Example 53, 3-(Phenylethynyl)-6-(pyrrolidin-1-ylsulfonyl)-5,6,7,8-tetrahydro-1,6-naphthyridine], the h left shift in experiment [1] (setting [3]) is recorded as 1.6-fold. Also, in experiment [2] (setting [4]), the r left shift is given as 2.8-fold. In addition, the EC50 in experiment [2] (setting [5]) worked out at 0.152 µM.
With `O=S(=O)(N1CCCCC1)N1CCc2ncc(C#Cc3ccccc3)cc2C1` [Example 54, 3-(Phenylethynyl)-6-(piperidin-1-ylsulfonyl)-5,6,7,8-tetrahydro-1,6-naphthyridine], the h left shift in experiment [1] (setting [3]) is listed as 2.0-fold. The EC50 came out at 0.726 µM in experiment [1] (Table A1) and 0.472 µM in experiment [2] (setting [5]). In experiment [2] (setting [4]), the r left shift is listed as 2.5-fold.
The matching figures for `O=S(=O)(N1CCOCC1)N1CCc2ncc(C#Cc3ccccc3)cc2C1` [Example 55, 4-((3-(Phenylethynyl)-7,8-dihydro-1,6-naphthyridin-6(5H)-yl)sulfonyl)morpholine]: 2.7-fold, 0.44 µM, 0.325 µM and 3.8-fold.
For `O=S(=O)(N1CCCCCC1)N1CCc2ncc(C#Cc3ccccc3)cc2C1` [Example 56, 6-(Azepan-1-ylsulfonyl)-3-(phenylethynyl)-5,6,7,8-tetrahydro-1,6-naphthyridine], in experiment [1] (setting [3]), the h left shift was 3.0-fold. For the same compound, the EC50 in experiment [1] (Table A1) came out at 0.499 µM; in experiment [2] (setting [5]), 0.296 µM. In addition, the r left shift in experiment [2] (setting [4]) is recorded as 3.3-fold.
Taken in the same sequence, the figures for `COC(=O)N1CC[C@H]2c3ncc(C#Cc4ccccc4)cc3CC[C@H]21` [Example 71, (6aR,9aR)-Methyl 3-(phenylethynyl)-6,6a,9,9a-tetrahydro-5H-pyrrolo[2,3-h]quinoline-7(8H)-carboxylate] were 2.2-fold, 0.241 µM, 0.0327 µM and 1.3-fold.
With `COC(=O)N1CC[C@H]2c3ncc(C#Cc4cccc(F)c4)cc3CC[C@H]21` [Example 72, (6aR,9aR)-Methyl 3-((3-fluorophenyl)ethynyl)-6,6a,9,9a-tetrahydro-5H-pyrrolo[2,3-h]quinoline-7(8H)-carboxylate], the h left shift in experiment [1] (setting [3]) was 1.7-fold. The r left shift in experiment [2] (setting [4]) is on record as 1.3-fold. For the same compound, in experiment [2] (setting [5]), the EC50 turned out to be 0.0273 µM.
For the compound `CCOC(=O)C(=O)N1CCc2ncc(C#Cc3ccccc3)cc2C1` [Example 77, Ethyl 2-oxo-2-(3-(phenylethynyl)-7,8-dihydro-1,6-naphthyridin-6(5H)-yl)acetate], the h left shift in experiment [1] (setting [3]) is 2.8-fold. The EC50 in experiment [1] (Table A1) came out at 0.0254 µM; in experiment [2] (setting [5]), 0.0221 µM. Besides, in experiment [2] (setting [4]), the r left shift is reported as 2.8-fold.
As for `CN1CCN(S(=O)(=O)N2CCc3ncc(C#Cc4ccccc4)cc3C2)CC1` [Example 78, 6-((4-Methylpiperazin-1-yl)sulfonyl)-3-(phenylethynyl)-5,6,7,8-tetrahydro-1,6-naphthyridine], the h left shift in experiment [1] (setting [3]) is on record as 1.7-fold. Also, the EC50 in experiment [1] (Table A1) was found to be 2.02 µM; in experiment [2] (setting [5]) it was 2.05 µM.
Turning to `CC(C)S(=O)(=O)N1CCc2ncc(C#Cc3ccccc3)cc2C1` [Example 81, 6-(Isopropylsulfonyl)-3-(phenylethynyl)-5,6,7,8-tetrahydro-1,6-naphthyridine], the h left shift in experiment [1] (Table A3 (SAMs / very weak PAMs), agonist EC50 shift with 10 µM modulator or vehicle) is on record as 1.5-fold. In addition, the r left shift in experiment [2] (Table A3 (SAMs / very weak PAMs), quisqualate EC50 shift with 10 µM modulator) was 1.5-fold. Moreover, the EC50 in experiment [2] (Table A3, given in brackets where Ki is n.d., read-out: r EC50) stood at 0.0511 µM.
